US10806121B2, “Animal litter containing a pheromone composition” (Sergeant's Pet Care Products, LLC, priority 2014, dated 2020)

How the values were obtained:
[1] = system: cats; experiment: Study 3: 24-hour behavior of the most aggressive intact male cat pairs, CON litter versus RP litter; type: in vivo
Experimental: During the studies, cat behavior was captured on video for the duration of the 24- or 48-hour period depending on the specific study. Red lights were used at night to allow for continuous observation. A scan sampling method was used to record cat behaviors each 5 minutes. The recorded videos were subsequently reviewed and analyzed in each 5-minute scan sample, with tape playing 30 frames per second. At each 5-minute time point, each cat was categorized as anxious or relaxed. Aggression or litter box usage occurred between 5-minute periods were also noted. Because each scan sample is of 5-minute period, a total of 24 observations for each individual behavior are possible for each 2 hours. The instances of an individual behavior (An; n=1, 2, 3, . . . 24) in each 5-minute period were totaled for instances in each 2 hours (Bm=ΣAn, n=1, 2, 3, . . . 24; m=1, 2, 3, . . . 12) over 24 hours. The behavioral score for each 2-hour period is ΣAn/24 (n=1, 2, 3, . . . , 24). A behavioral score for a 24-hour period is ΣBm/12 (m=1, 2, 3, . . . 12). Among all behavior assessed, aggression, in-litter-box and anxiety were scored as yes or no during each 5 minutes (An=1 or 0; n=1, 2, 3, . . . 24). In addition, anxiety was measured as a percentage of the total time that the cat was experiencing anxiety. As such the anxiety related behavioral score for a 24-hour period is 0.347×ΣBm (%) (Bm=ΣAn(%), n=1, 2, 3, . . . 24; m=1, 2, 3, . . . 12), which reflects the percentage of time over 24 hours that the cats are experiencing anxiety. Moreover, when ranking cat pairs based on their level of aggression, the sum of the aggression scores of the individual cats in the pair was used to rank the cat pairs. Behavior data (behavioral scores) were further analyzed by Least Squares Analysis of variance using SAS (2011, SAS Inst., Inc., Cary, N.C.) software and the p-diff general linear model procedures to assess treatment differences within each time period. This statistical model included effects of treatment (TRT), cat-pair within treatment (TRT*CAT), time (HR), treatment by time (TRT*HR) and residual error (SE; used to test remaining effects). The most aggressive eight pairs of intact male cats from study 2 (Table, the pairs ranked 1 and 2-9) were selected for this 24-hour study, which was designed to assess if and how 2-methylbut-2-enal containing cat litter affects the multiple cats placed in one single room. Between studies 2 and 3, cat pairs had been separated for at least 12 weeks. Control (CON) litter and rabbit pheromone (RP) litter were similarly prepared as illustrated in Study 2. Each pair of cats was placed in a kennel containing one food dish, one water dish, and one litter box. Food and water was available ad libitum during the study. […] Side fences were chain linked. A total of 4 kennels were placed in one single room, and two rooms were utilized for eight pairs of cats. Cat behaviors were captured on video for the duration of the 24-hour period. Red lights were used at night to allow for continuous observation. The study schedule was as follows: • (1) 0 hour—Add 3 lb. aliquot of CON litter to a clean litter box and weigh the litter box; place a CON litter box in each of the 4 kennels in Room One. Before placing a designated cat pair in each of the kennels, weigh the cats. Start the video taping. • (2) 0 hour—Add 3 lb. aliquot of RP litter to a clean litter box and weigh; place RP litter boxes in 4 kennels in a separate Room Two; weigh cats; place designated pairs in kennels; and start the video taping. • (3) 24-hour—Remove and weigh all litter boxes; weigh all cats. Video records were obtained and reviewed for summary and analyses. At the 24-hour point of time, it was noted if any soiling had occurred outside of the litter box. Any social behavioral problems of the cats were also manually recorded, despite that video records provided a much more precise record of cat behaviors. Cat behavior of each pair was captured on video for the duration of the 24-hour period. […]

[2] = system: cats; experiment: Study 1: cat litter preference, pheromone-treated litter versus control litter; type: in vivo
Experimental: In Study 1, four different treatments were tested: Androstenone (ANDRO); cat urinary pheromone, 3-mercapto-3-methyl-1-butanol (CAT); rabbit pheromone, 2-methylbut-2-enal (RP); and both the cat urinary pheromone and the rabbit pheromone (CAT+RP). 40 individual cats were used in this study to assess their preference to or aversion from a control litter versus a litter under one of the four treatments. Each treatment was tested with 10 cats. Litter was divided into 3 lb aliquots, and each aliquot was either used as a control or was mixed with a pheromone (or a pheromone combination) to be tested at a level of 10 μg/3-lb (or 7.3 μg/kg).
On Day 0, each cat was placed into an assigned chamber randomly placed with two litter boxes, one control and one treated. Each of the two litter boxes was weighed and the weight was recorded. The camera in the chamber was properly aligned to give a full view of the chamber and started taping on Day 0. On Day 1, 24 hours after the start of taping on Day 0, each of the two litter boxes in the chamber was weighed and the weight was recorded. On Day 2, 48 hours after the start of taping on Day 0, each of the two litter boxes in the chamber was again weighed. Litter can be disposed of after weighing on Day 2, and the camera was then turned off. The weights of the litter boxes over the 48 hours were used to determine whether the litter was used or not, and at which preference level.
The data were expressed as both a percentage preference (% of the cats using the treated litter in each treatment group) and by the weight of the litter (the litter gets heavier as it is soiled). It was expected that if the added pheromone had no effect on litter preference, 50% of the cats would use the treated litter and 50% would use the control litter. […] Further, the weight difference between a control litter or litter under treatment was used to show the relative strength of the effect of a particular treatment on cat's litter use behavior. During the study, some cats (N=3; 2 in CAT+RP and 1 in RP) spilled their litter and their data were unreliable and were not included.

[3] = treated versus control litter weight after 2 days

SMILES: C/C=C(\C)C=O [RP, 2-methylbut-2-enal]
- aggression away from litter box, % of the observations ([1]; 0-2 hour period, CON litter 25%, P<0.01): 5-6%
- aggression near litter box, % of the observations ([1]; 0-2 hour period, CON litter more than 40%, P<0.01): 2-3%
- aggression away from litter box, % of the observations ([1]; 2-4 hour period, CON litter 23-24%, P<0.01): 4%
- lying/sitting - touching versus CON litter ([1]; 6-8 hour period, P=0.07): tendency to sit or lie in contact
- anxiety versus CON litter ([1]; 8-10 hour period, P=0.06): tendency to be more anxious
- litter box use versus CON litter ([1]; 8-10 hour period, P=0.10): tended to use the litter box more often
- anxiety versus CON litter ([1]; 10-12 hour period, P<0.01): significantly more anxious
- neutral social interaction versus CON litter ([1]; 10-12 hour period, P<0.01): significantly more neutral (non-aggressive) social interactions
- litter box use versus CON litter ([1]; 12-14 hour period, P<0.01): Cats experiencing CON litter used the litter box significantly more
- anxiety versus CON litter ([1]; 14-16 hour period, P=0.01): significantly more anxious
- anxiety versus CON litter ([1]; 16-18 hour period, P=0.03): significantly more anxious
- lying/sitting - touching versus CON litter ([1]; 16-18 hour period, P=0.05): tended to sit or lie in contact less
- anxiety versus CON litter ([1]; 18-20 hour period, P=0.03): significantly more anxious
- litter box use versus CON litter ([1]; 18-20 hour period, P=0.03): Cats experiencing CON litter used the litter box significantly more
- lying/sitting - touching versus CON litter ([1]; 20-22 hour period, P=0.01): significantly higher
- lying/sitting - touching versus CON litter ([1]; 22-24 hr period, P=0.04): tended to sit or lie in contact less
- duration of aggression control ([1]; RP in the litter around 0.0004% to 0.0006% (w/w)): 6 to 8 h
- Behavior score: Head in food/H2O dish ([1]; RP litter (3% (w/w) beads with 0.02% (w/w) 2-methylbut-2-enal), 24 hours, 4 cat pairs, CON 0.85, TRT P-Value 0.16): 0.57
- Behavior score: Grooming other ([1]; RP litter, 24 hours, 4 cat pairs, CON 0.03, TRT P-Value 0.36): 0.00
- Behavior score: Neutral social interaction ([1]; RP litter, 24 hours, 4 cat pairs, CON 0.10, TRT P-Value 0.82): 0.14
- Behavior score: In litter box - using ([1]; RP litter, 24 hours, 4 cat pairs, CON 0.31, TRT P-Value 0.23): 0.20
- Behavior score: Grooming self ([1]; RP litter, 24 hours, 4 cat pairs, CON 0.56, TRT P-Value 0.90): 0.52
- Behavior score: Lying/sitting - touching ([1]; RP litter, 24 hours, 4 cat pairs, CON 0.73, TRT P-Value 0.92): 0.64
- Behavior score: Play ([1]; RP litter, 24 hours, 4 cat pairs, CON 0.84, TRT P-Value 0.89): 0.92
- Behavior score: Sleeping ([1]; RP litter, 24 hours, 4 cat pairs, CON 0.95, TRT P-Value 0.59): 0.63
- Behavior score: In litter box - not using ([1]; RP litter, 24 hours, 4 cat pairs, CON 1.63, TRT P-Value 0.74): 2.34
- Behavior score: Aggression ([1]; RP litter, 24 hours, 4 cat pairs, CON 3.55, TRT P-Value 0.37): 2.01
- Behavior score: Locomotion ([1]; RP litter, 24 hours, 4 cat pairs, CON 5.50, TRT P-Value 0.52): 4.34
- Behavior score: Lying/sitting - not touching ([1]; RP litter, 24 hours, 4 cat pairs, CON 14.98, TRT P-Value 0.79): 15.53
- Behavior score: Anxiety (%) ([1]; RP litter, 24 hours, 4 cat pairs, CON 17.00, TRT P-Value 0.56): 25.00%
- weight added to litter box ([1]; RP litter, CON cats 0.15 kg, SE=0.02 kg, change not significant, litter spilled): 0.07 kg/day
- overall RP treatment effect on behaviors over the full 24 hours ([1]; RP versus CON litter, all behaviors of Table 10): None of the behaviors evaluated over the full 24 hours were significantly changed
- anxiety versus CON litter ([1]; first 2 hour period, P=0.04): significantly less anxious
- aggression patterns versus CON litter ([1]; first 6 hours after cats were placed together, P<0.01): significantly lower
- increase of litter attraction ([2]; 7 out of 9 cats chose treated litter): more than 3.5 times
- percentage preference (% of the cats using the treated litter) ([2]; litter treated at 10 μg/3-lb (7.3 μg/kg), choice against control litter over 48 hours, 50% = no effect): 78%
- Litter Type Use, g, TRT (weights of litter after 2 days) ([2]; treated litter box, 10 μg/3-lb, SE = 0.023): 0.76 g
- Relative Difference, % [2, 3]: 138%
- Significantly Different [2, 3]: Yes
- effect on cats' litter preference ([2]; treated versus control litter, 48 hours): highly preferred over the control litter
